Measured values published in ChEMBL document CHEMBL1146366, “Synthesis and antigenotoxic activity of some naphtho[2,1-b]pyrano[3,2-e][1,2,4]triazolo[1,5-c]pyrimidine derivatives” (Eur J Med Chem, 2007).

Legend:
[1] = test system: Escherichia coli; test: Genotoxicity in Escherichia coli PQ37 assessed as ratio of beta-galactosidase/AP activity in presence and absence of drug at 10 ug; format: toxicity, organism-based
[2] = test system: Escherichia coli; test: Inhibition of nifuroxazide-induced genotoxicity in Escherichia coli PQ37 at 2 ug by SOS chromotest; format: functional
[3] = test system: Escherichia coli; test: Inhibition of nifuroxazide-induced genotoxicity in Escherichia coli PQ37 at 10 ug by SOS chromotest; format: functional
[4] = test system: Escherichia coli; test: Inhibition of nifuroxazide-induced genotoxicity in Escherichia coli PQ37 at 50 ug by SOS chromotest; format: functional
[5] = test system: Escherichia coli; test: Genotoxicity in Escherichia coli PQ37 assessed as ratio of beta-galactosidase/AP activity in presence and absence of drug at 50 ug; format: toxicity, organism-based
[6] = test system: Escherichia coli; test: Genotoxicity in Escherichia coli PQ37 assessed as ratio of beta-galactosidase/AP activity in presence and absence of drug at 2 ug; format: toxicity, organism-based
[7] = test system: Escherichia coli; test: Genotoxicity in Escherichia coli PQ37 assessed as ratio of beta-galactosidase/AP activity in presence and absence of drug at 5 ug; format: toxicity, organism-based

Row | Structure (SMILES) | Ratio [1] | Inhibition [2] [%] | Inhibition [3] [%] | Inhibition [4] [%] | Ratio [5] | Ratio [6] | Ratio [7]
1 | Cc1nc2c3c(ncn2n1)Oc1ccc2ccccc2c1C3C(C)C (stereo not drawn) | 1.1 | 99 | 98 | 95 | 1.39 | 1.01 | –
2 | c1ccc(-c2nc3c4c(ncn3n2)Oc2ccc3ccccc3c2C4c2ccccc2)cc1 (stereo not drawn) | 1.24 | 78 | 86 | 99 | 1.4 | 1.02 | –
3 | Clc1ccccc1C1c2c(ccc3ccccc23)Oc2ncn3nc(-c4ccccc4)nc3c21 (stereo not drawn) | 1.21 | 64 | 60 | 48 | 1.62 | 1.16 | –
4 | Clc1ccc(C2c3c(ccc4ccccc34)Oc3ncn4nc(-c5ccccc5)nc4c32)cc1 (stereo not drawn) | 1.33 | 32 | 38 | 48 | 1.67 | 1.44 | –
5 | CC(C)C1c2c(ccc3ccccc23)Oc2ncn3nc(-c4ccccc4)nc3c21 (stereo not drawn) | 1.19 | 62 | 61 | 63 | 1.25 | 1.11 | –
6 | Cc1nc2c3c(ncn2n1)Oc1ccc2ccccc2c1C3c1ccccc1 (stereo not drawn) | 1.32 | 70 | 61 | 56 | 1.56 | 1.12 | –
7 | c1ccc(-c2nc3c4c(ncn3n2)Oc2ccc3ccccc3c2C4c2ccco2)cc1 (stereo not drawn) | 1.4 | 99 | 99 | 75 | 1.3 | 1.3 | –
8 | O=C(N/N=C/c1ccc([N+](=O)[O-])o1)c1ccc(O)cc1 [NIFUROXAZIDE] | – | – | – | – | – | – | 12.88
